Experimental data as given in US20210261636A1, “NEOANTIGENS EXPRESSED IN MULTIPLE MYELOMA AND THEIR USES” (Janssen Biotech, Inc., priority 2020, published 2021).

Key:
CD8+ T cells = assay: Exogenous autologous healthy donor restimulation assay, TNFα and IFNγ production by CD8+ T cells; type: cell-based, human; set-up: Frequency (TNFα+ IFNγ+ CD8 T cells): unit not given here; conditions: for Fold change (CD8+) vs. DMSO: maximum CD8+ T-cell response (TNFα and IFNγ); for Fold change (CD8+) vs. DMSO / Frequency (TNFα+ IFNγ+ CD8 T cells): donor independent, peptide pool 10 μg/mL, healthy donors; for Frequency (TNFα+ IFNγ+ CD8 T cells): maximum CD8+ T-cell response; for Immunogenic (yes/no): positive if CD8+ and/or CD4+ double positive TNFα/IFNγ frequency >=3-fold over DMSO and at least 0.01%
Experimental: (§1) Immunogenicity responses were measured by estimating TNFα IFNγ double positive cells in the CD4+ and/or CD8+ T-cell populations. A response is considered positive if TNFα IFNγ double positive fraction was greater than or equal to three-fold over unstimulated cells (DMSO negative control) with a minimum frequency >=0.01%. […]
(§2) Overlapping 15-mer peptides were designed to span each indicated neoantigen. Their ability to activate T cells was assessed using known methods, such as the assay defnied as exogenous autologous normal donor restimulation assay. The peptides were used as pools using TNFα and IFNγ production by CD8^+ and CD4^+ T cells as a readout. Maximum frequency of CD8^+TNFα^+IFNγ^+ and CD4^+TNFα^+IFNγ^+ T cells and maximum fold change over background for each pool of peptides were analyzed, which were calculated as the highest frequency of CD8^+ TNFα^+IFNγ^+ and CD4^+ TNFα^+IFNγ^+ T cells and resulting fold change across the normal donors evaluated for the peptide.
(§3) CD1c+Dendritic Cells (CD1c+DC) isolated from human healthy PBMCs were thawed using media (IMDM (Gibco) supplemented with glutamine, HEPES, 5% human serum (Sigma), and 1× Pen-Strep). DC cells were resuspended in media supplemented with IL-4 (Peprotech, 20 ng/mL) and GM-CSF (Gibco, 20 ng/mL), plated in 6 well microplates, and rested overnight at 37° C. and 5% CO2 incubator. The following day, DC cells were counted and plated in a 96 well round bottom microplate at a concentration of 30,000 viable cells per well. Lyophilized neoantigen peptide pools (15-mer peptides with 8-mer overlapping peptide sequences) were solubilized in 100% DMSO with a stock concentration of 20 mg/mL Neoantigen peptides pools were added to DCs for a final concentration of 10 μg/mL and rested for 2 hours at 37° C. and 5% CO2 incubator. CEF Peptide Pool “Plus” (Cellular Technologies, Ltd.) was utilized as a positive control (each viral peptide at a final concentration of 4 ug/ml) and DMSO at the same final concentration (0.05%) as the experimental peptides was utilized as a negative control. After 2 hours, DC cells were irradiated with 50 gray of ionizing radiation. Autologous CD3+ Pan-T cells isolated from human normal PBMCs were thawed using media. Following irradiation, autologous Pan-T cells were added to the irradiated DCs at 300,000 viable cells per well. Human IL-15 (Peprotech) was added to all wells at final concentration of 10 ng/ml. Plates were incubated at 37° C. and 5% CO2 incubator for a total of 12 days. Media was refreshed every 2-3 days with IL-15 (R&D System, 10 ng/mL final concentration) and IL-2 (R&D systems, 10 IU/mL final concentration).
(§4) On Day 11, cells were re-stimulated with identical experimental peptide pools or controls, at same concentration as peptide stimulation on Day 1. Protein Inhibitor Cocktail (eBioscience) was added to every well and plate was incubated overnight for 14-16 hours at 37° C. and 5% CO2 incubator. On Day 12, cells were stained for surface and intracellular flow cytometry analysis. The cells were washed with PBS and stained with Live/Dead Fixable Aqua Dead Cell stain (Thermo-Fisher). Following the live/dead stain, cells were blocked using Biotin-Free Fc Receptor Blocker (Accurate Chemical & Scientific Corp). Extracellular cellular flow panel (1 μL/antibody per well in 50 μL) consisted of CD3 PerCP-Cy5.5 (Biolegend), CD4 BV421 (Biolegend), and CD8 APC-Cy7 (Biolegend). After extracellular staining, cells were fixed and permeabilized using Foxp3/Transcription Factor Staining Buffer Set (eBioscience) and stained for intracellular proteins (1:50 dilution) using TNFα FITC (R&D Systems) and IFNγ BV785 (Biolegend). Cells were washed and resuspended in stain buffer, analyzed, and recorded in a BD Celesta flow cytometer.
(§5) Flow cytometry analysis was conducted on FlowJo v10.6 software. Cells were gated on live, singlet, CD3+, CD4+ and CD8+ T cells. The CD8+ and CD4+ T cells were analyzed for TNFα and IFNγ expression. […]

CD4+ T cells = assay: Exogenous autologous healthy donor restimulation assay, TNFα and IFNγ production by CD4+ T cells; type: cell-based, human; set-up: Frequency (TNFα+ IFNγ+ CD4 T cells): unit not given here; conditions: donor independent, peptide pool 10 μg/mL, healthy donors; for Fold change (CD4+) vs. DMSO: maximum CD4+ T-cell response (TNFα and IFNγ); for Frequency (TNFα+ IFNγ+ CD4 T cells): maximum CD4+ T-cell response
Experimental: as §1, §2, §3, §4, §5

| Sequence | Fold change (CD8+) vs. DMSO (CD8+ T cells) | Frequency (TNFα+ IFNγ+ CD8 T cells) (CD8+ T cells) | Immunogenic (yes/no) (CD8+ T cells) | Fold change (CD4+) vs. DMSO (CD4+ T cells) | Frequency (TNFα+ IFNγ+ CD4 T cells) (CD4+ T cells) |
| --- | --- | --- | --- | --- | --- |
| WTRPEKQELNSSCCSLIL [AS120, alternative splicing, NCAM1] | 13.03 | 0.24 | Yes | 3.71 | 0.018 |
| ERSHSKKKDGLVRNDGPGFPPMFSTSENTNLD [AS54, alternative splicing, SETBP1] | 0.73 | 0.008 | Yes | 90.535 | 0.033 |
| LVARPEIQIFMEEDVMKVE [AS124, alternative splicing, PDZRN4] | 5.27 | 0.089 | Yes | 7.31 | 0.064 |
| NAVRSYYETNGGMSFLRITP [FUS19, gene fusion CADPS2-> RNF148] | 12.96 | 0.016 | Yes | 1.26 | 0.009 |
| LGRLEEAKVPLKMLLF [AS122, alternative splicing, OGT] | 3.63 | 0.044 | Yes | 13.71 | 0.048 |
| ISKRLKSRRRSGWQLNRAGNRGLSPGLGLFPRGCCRWGGAYTRLPSANQT [FUS20, gene fusion PTGES2-> SLC25A25-AS1] | 511.064 | 4.85 | Yes | 11.664 | 0.068 |
| DLNQDGYNGNLNQSVEVIYVSSPLHKGDHACFKVFSMVCVGAVIITDF [AS64, alternative splicing, ITGA8] | 6.83 | 0.8 | Yes | 376.11 | 0.57 |
| VEDEEKKEAGTHFIHLTGTTVSAGVPEEMPATTLRREVF [AS108, alternative splicing, ACIN1] | 1406.07 | 12.5 | Yes | 179.31 | 1.06 |
| LRYLIHLRKWKIK [FUS55, gene fusion FAM214A-> ARPP19] | 13.57 | 0.38 | Yes | 74.67 | 0.056 |
| FSMRPAFGETALGCKKW [AS19, alternative splicing, GABRR2] | 140 | 0.031 | Yes | 23.16 | 0.12 |
| RSISLHKSDPSLLSPN [AS25, alternative splicing, TBCEL] | 43.6 | 0.028 | Yes | 57.01 | 0.061 |
| SRAPIKMSVLGQGHSRCLLHCLCLVAPMAFPVRLRVPCGG [AS16, alternative splicing, CAMSAP1] | 8200 | 0.82 | Yes | 15.062 | 0.011 |
| PPGGHSPQDLSIREIFCLGHKEVC [AS136, alternative splicing, ZNF592] | 5.91 | 0.072 | Yes | 10.86 | 0.07 |
| LDQCVETLCSLSKSD [FUS44, gene fusion ZGPAT-> LIME1] | 4.82 | 0.097 | Yes | 4.8 | 0.024 |
| QILQQALKIAFLKVVVPLKLHPYSFCH [AS132, alternative splicing, USP25] | 4.73 | 0.026 | Yes | 181.82 | 0.17 |
| RPGVFTDIL [FUS53, gene fusion PTPRG-> C3orf14] | 76.5 | 0.78 | Yes | 6.29 | 0.041 |
| MDLTAIYETMQIFVKT [FUS30, gene fusion ZFP36-> UBC] | 3.5 | 0.13 | Yes | 51.81 | 0.1 |
| PPTAAASQTMQIFVKT [FUS31, gene fusion FOSB-> UBC] | 14.72 | 0.022 | Yes | 0.7 | 0.004 |
| QILEQPKQVRLKGWDFKC [AS68, alternative splicing, NFKB1] | 4 | 0.022 | Yes | 21.77 | 0.033 |
| VAPSQSRQEECWRHKMSW [AS42, alternative splicing, LARP1B] | 40 | 0.076 | Yes | 3.83 | 0.025 |
